# Experimental data as given in US7718170B2, “Alkaline phosphatase compositions to reduce skin cancer” (Essential Skincare, LLC, priority 2006, dated 2010).
# B1: Purified PALP: human placental alkaline phosphatase purified to homogeneity from commercial Sigma-Aldrich PALP; it is 'PALP' in Table 2, b31 and b104 (protein, UniProt P05187 23-506, looked up)
# Alkaline phosphatase, …: IIPVEEENPDFWNREAAEALGAAKKLQPAQTAAKNLIIFLGDGMGVSTVTAARILKGQKKDKLGPEIPLAMDRFPYVALSKTYNVDKHVPDSGATATAYLCGVKGNFQTIGLSAAARFNQCNTTRGNEVISVMNRAKKAGKSVGVVTTTRVQHASPAGTYAHTVNRNWYSDADVPASARQEGCQDIATQLISNMDIDVILGGGRKYMFRMGTPDPEYPDDYSQGGTRLDGKNLVQEWLAKRQGARYVWNRTELMQASLDPSVTHLMGLFEPGDMKYEIHRDSTLDPSLMEMTEAALRLLSRNPRGFFLFVEGGRIDHGHHESRAYRALTETIMFDDAIERAGQLTSEEDTLSLVTADHSHVFSFGGYPLRGSSIFGLAPGKARDRKAYTVLLYGNGPGYVLKDGARPDVTESESGSPEYRQQSAVPLDEETHAGEDVAVFARGPQAHLVHGVQEQTFIAHVMAFAACLEPYTACDLAPPAGTTD
# Columns and labels:
# [1] = test system: B16 mouse melanoma; test: B16 mouse melanoma tumor growth (tumor volume by calipers); assay type: in vivo; settings: subcutaneous injection
# [2] = test system: B16 mouse melanoma; test: as above; assay type: in vivo; settings: for Tumor volumes; Day 8 after tumor transplantation: local cream 150 mg per application on days 8, 11, 13, 15, 18, 20, day 8 = start, mean of 5 animals
# Description: The B16 mouse melanoma tumors were developed in first generation hybrid BDF1 (C57 B1 female×DBA/2 male) adult female mice kept at specified pathogen free (SPF) hygienic level. These mice have the complete immune system. The human H-168 melanoma tumors were developed in the homozygous line of C.B.-171 cr scid/scid mice (with severely compromised immune deficiency) which is an inbred mutant strain. In each case, tumor tissue fragments of about 0.1-cm^3 were surgically implanted subcutaneously into the intrascapular region to develop the tumors. Each tumor fragment contained 1-1.5×10^6 cells. The animals were kept in macrolon cages on ventilated rack at 22-24° C. (50-60% humidity) with lighting regimen of 12/12 h light/dark. The animals had free access to tap water and were fed with sterilized standard diet (Charles River VRF1, Germany) ad libitum. The animals were taken care of according to the “Guiding Principle for the care and use of Animals” based upon the Helsinki declaration and they were approved by the local ethical committee.
# The mice bearing the rapidly growing B16 melanoma tumors were used after 8-11 days of tumor transplantation, while mice bearing the slower growing H-168 melanoma were used after 17 days of transplantation. In either case, when the tumor-bearing mice were used, the size of the tumors was in the 0.3-0.6 cm^3 range; animals were selected so that in the same treatment group the difference in tumor size was no greater than 0.1 cm^3 PALP, TF, or AT were used topically in a cream alone or in combination; in each case, 150-mg cream was applied on the tumor and the vicinity of tumor area (with about 0.3-0.5 cm margin). The tumor volume was determined by using calipers; this technique is well known to one having ordinary skill in the art. Tumor volume was calculated according to the generally accepted formula: V=a^2×b×π/6, where “a” and “b” mean the shortest and longest diameter, respectively, of the measured tumor.
# The aggressive B16 mouse melanoma model was developed as described under Example 3. On day 11 after transplantation of tumor cells, the animals were either remained untreated (Group 1) or were treated with 15 mg/kg highly purified PALP via subcutaneous administration (Group 2). In Group 3, the tumors were treated locally with 150-mg of cream containing 4 mg commercial PALP in 1 g of Vaselinum cholesteratum. In Group 4, the animals were treated simultaneously locally with commercial PALP containing cream and via subcutaneous injection with highly purified PALP. Each treatment was performed once daily for seven consecutive days (i.e., treatments were terminated on day 18). Locally administered PALP preparation, and to a somewhat smaller extent injected purified PALP, inhibited the growth of B16 melanoma. The inhibitory effects remained significant even on day 23, 5 days after the last treatment. When PALP preparations were simultaneously administered via both routes, the combined effects were greater than the individual effects. […] Alternatively, optimal effects could require the presence of all 3 proteins. Experiments presented later confirm that the inhibitory effects of purified PALP on melanoma growth are greater in the simultaneous presence of TF and AT.
# The B16 mouse melanoma model was developed as described under Example 3. On day 8 after transplantation of tumor cells, the animals either remained untreated (Group 1) or in other animal groups the tumors were treated locally with creams (150 mg per application) containing active components as follows: Group 2, 0.4 mg of purified PALP per 1-g Vaseline; Group 3, 0.5 mg of purified partially iron-saturated TF per 1-g Vaseline; Group 4, 0.4 mg of PALP+0.5 mg TF per 1-g Vaseline; Group 5, 1.2 mg of purified AT per 1-g Vaseline; Group 6, 0.4 mg of PALP+0.5 mg TF+1.2 mg of purified AT per 1-g Vaseline; and Group 7, Vaselinum cholesteratum alone. Each treatment was performed once daily on days 8, 11, 13, 15, 18 and 20. […]
# [3] = test system: fibroblast; test: Fibroblast proliferation in vitro after pre-heating of TF; assay type: cell-based; settings: pre-heating at up to 75° C. for 30 min
# Protocol: The stimulatory effects of TF on fibroblast proliferation in vitro are not altered by pre-heating it at up to 75° C. for 30 min. Thus, pre-heating of TF-containing compositions to enhance the effects of other components, such as PALP and AT will be unlikely to alter other effects of TF such as inhibition of melanoma growth.
# [4] = test system: B16 melanoma; test: Lung metastasis of B16 melanoma (macroscopic lung colonies); assay type: in vivo, mouse; settings: treatments from day 11, daily, counted 21 days after starting the treatments, 7 animals, parentheses = smallest and highest numbers in the group
# Protocol: B16 melanoma cells are highly metastatic that are known to preferably form metastatic colonies in the lung. The goal of this experiment was to determine if any of the components present in commercial PALP or the mode of application affect the metastatic process.
# The B16 melanoma model described under Example 3 was used. The treatments of mice bearing the rapidly growing B16 melanoma were started 11 days after tumor transplantation; additional treatments were performed on each day for six consecutive days. In each experimental group seven animals were used. In the first group, animal tumors were treated locally with 200 mg Vaseline (control group). In the second group, animal tumors were locally treated with 200 mg Vaseline cream containing 4 mg commercial PALP per 1-g Vaseline. In the third group, animals were subcutaneously injected commercial PALP (1.5 mg per animal or 60 mg per kg). In the fourth group, animals were treated with commercial PALP both locally and subcutaneously. In the fifth group, animals were subcutaneously injected highly purified PALP (0.35 mg per animal or 14 mg per 1 kg). In the sixth group, animals were subcutaneously injected partially iron-saturated human TF (0.4 mg per animal or 16 mg per 1 kg). In the seventh group, animal tumors were locally treated with 200 mg Vaseline cream containing 1.0 mg human TF per 1 g Vaseline. In the last group, the tumors were untreated during the entire period of experiment. The macroscopic colonies were counted in the lung (7 animals in each group) 21 days after starting the treatments. The data are presented in TABLE 5; numbers in the parentheses indicate the smallest and highest numbers of metastatic lung colonies in the same group.
# [5] = Organ pathology in mice after repeated injection; assay type: in vivo; settings: 16 mg/kg injected 15-times over a 3 weeks period
# [6] = subcutaneous injection, CCDTHT 4.6 mg/kg once daily day 11-22, mean of 5 mice
# [7] = local cream 150 mg per application on days 8, 11, 13, 15, 18, 20, mean of 5 animals
# [8] = BDF1 mice, 5 days after the last treatment, mean of 7 animals
# [9] = BDF1 mice, day 11 = start of treatment, once daily for seven consecutive days, mean of 7 animals
# [10] = BDF1 mice, treated once daily from day 11 for seven days, mean of 7 animals
# [11] = BDF1 mice, treated once daily from day 11 for seven days, treatments terminated on day 18, mean of 7 animals
# [12] = BDF1 mice, treatments terminated on day 18, mean of 7 animals
Molecule,Tumor volumes; Day 8 after tumor transplantation [2],"Tumor volumes; Day 11 after tumor transplantation [2, 7]","Tumor volumes; Day 13 after tumor transplantation [2, 7]","Tumor volumes; Day 15 after tumor transplantation [2, 7]","Tumor volumes; Day 18 after tumor transplantation [2, 7]","Tumor volumes; Day 20 after tumor transplantation [2, 7]",Number of lung colonies per lung* [4],"Tumor volumes; Day 23 after tumor transplantation [2, 8]","Tumor volumes; Day 11 after tumor transplantation [2, 9]","Tumor volumes; Day 14 after tumor transplantation [2, 10]","Tumor volumes; Day 16 after tumor transplantation [2, 10]","Tumor volumes; Day 18 after tumor transplantation [2, 11]","Tumor volumes; Day 21 after tumor transplantation [2, 12]",also measured
"CC[N+](C)(CC)CCOCc1ccc2sc3ccccc3c(=O)c2c1.[I-] [CCDTHT, N,N-diethyl-N-methyl-2-[(9-oxo-9H-thioxanthen-2-yl)methoxy]-ethanaminium iodide]",,,,,,,,,,,,,,"Tumor volumes; Day 11 after tumor transplantation ([1]; CCDTHT 4.6 mg/kg once daily day 11-22, day 11 = start, mean of 5 mice): 0.83 cm^3; Tumor volumes; Day 21 after tumor transplantation ([1]; CCDTHT 4.6 mg/kg once daily day 11-22, mean of 5 mice): 2.60 cm^3; Tumor volumes; Day 14 after tumor transplantation [2, 6]: 1.20 cm^3; Tumor volumes; Day 16 after tumor transplantation [2, 6]: 1.40 cm^3; Tumor volumes; Day 18 after tumor transplantation [2, 6]: 1.90 cm^3; Tumor volumes; Day 23 after tumor transplantation [2, 6]: 3.00 cm^3"
"AT: human α1-antitrypsin, essentially pure, purified from commercial PALP preparation",0.42 cm^3,0.83 cm^3,1.60 cm^3,2.55 cm^3,3.48 cm^3,4.80 cm^3,,,,,,,,
"TF: human transferrin, partially iron-saturated, Sigma-Aldrich T 3309",0.34 cm^3,0.79 cm^3,1.38 cm^3,2.19 cm^3,3.07 cm^3,3.83 cm^3,doubling,3.88 cm^3,0.71 cm^3,1.00 cm^3,1.13 cm^3,2.00 cm^3,3.12 cm^3,"Stimulatory effects on fibroblast proliferation in vitro after pre-heating [3]: not altered; Number of lung colonies per lung* ([4]; listed as TF, local applications): 17 (10-21); Number of lung colonies per lung* ([4]; listed as TF, subcutaneous applications): 38 (29-44)"
B1,,,,,,,16 (9-18),3.63 cm^3,0.75 cm^3,1.16 cm^3,1.55 cm^3,2.13 cm^3,3.47 cm^3,"Pathological effects (cell death or immune cell infiltration) in liver, lung, heart, blood, kidney, muscle, brain, spleen, intestine [5]: has not caused any significant pathological effects"
